Source: patent publication US9422263B2, “Fluoro-substituted 3,5-dicyano-4-(1H-indazol-5-yl)-2,6-dimethyl-1,4-dihydropyridine derivatives and methods of use thereof” (BAYER PHARMA AKTIENGESELLSCHAFT, priority 2009, dated 2016)

Key:
[1] = biological target: Recombinant human c-Met protein (Homo sapiens (Human), UniProt P08581); experiment: c-Met receptor tyrosine kinase activity assay (NADH read-out); type: biochemical; conditions: ATP 30 μM, c-Met 30 nM
Experimental: c-Met Receptor Tyrosine Kinase Activity Assay (NADH Read-Out):
Recombinant human c-Met protein (Invitrogen, Carlsbad, Calif., USA) is used. As substrate for the kinase reaction the peptide KKKSPGEYVNIEFG (JPT, Germany) is used. For the assay, 1 μL of a 51-fold concentrated solution of the test compound in DMSO is pipetted into a white 384-well microtiter plate (Greiner Bio-One, Frickenhausen, Germany). 25 μL of a solution of c-Met (final concentration 30 nM) and pyruvate kinase/lactate dehydrogenase (Roche Diagnostics, Mannheim, Germany; final concentration 8 mg/L) in assay buffer [3-(N-morpholino)propanesulfonic acid (MOPS), 50 mM, pH 7; MgCl2, 10 mM; bovine serum albumin (BSA), 0.01%; Triton X 100, 0.01%; DTT, 2 mM] are added, and the mixture is incubated for 5 min at room temperature. Then, the kinase reaction is started by the addition of 25 μL of a solution of adenosine triphosphate (ATP, final concentration 30 μM), substrate (final concentration 100 μM), nicotinamide adenine dinucleo-tide (NADH, final concentration 50 μM) and dithiothreitol (DTT, final concentration 2 mM) in assay buffer, and the resulting mixture is incubated for a reaction time of 100 min at 32° C.
Subsequently, the amount of phosphorylated substrate is evaluated by measurement of the decrease of NADH fluorescence. Therefore, the fluorescence emissions at 465 nm after excitation at 340 nm is measured in a fluorescence reader, e.g. Tecan Ultra (Tecan, Männedorf, Switzerland). The data are normalised (enzyme reaction without inhibitor=0% inhibition; all other assay components but no enzyme=100% inhibition).

[2] = Pharmacokinetics after intravenous administration of test compounds; type: in vivo, rat; conditions: for in vivo PK, rat i.v. CLblood: male Wistar rats, total blood clearance; for in vivo PK, rat i.v. Fmax, calc: Fmax,calc=[1−CLblood/Qh]*100, Qh 4.2 L per h per kg
Experimental: Pharmacokinetics after Intravenous Administration of Test Compounds: Male Wistar rats (Harlan Laboratories) are anesthetized and a catheter is inserted into the jugular vein of the rat. The next day, a defined dose of the test compound is administered as solution by injection into the tail vein. Blood samples are collected through the jugular catheter during the next 24 h (8-11 time points). Blood is centrifuged in heparin-tubes, and each plasma sample is treated with acetonitrile for protein precipitation. After centrifugation, the test compound in the supernatant is quantified using an LC-MS/MS method. The determined plasma concentrations are used for the calculation of pharmacokinetic parameters, such as AUC (area under the plasma concentration vs. time curve), Vss (volume of distribution under steady-state conditions), Cmax (highest test compound concentration observed in plasma following administration), t1/2 (half-life) and CL (total clearance of the test compound from the plasma). For the calculation of the blood clearance, the blood to plasma partitioning is determined by incubation of the test compound in blood of rats. After separation of the plasma by centrifugation, the concentration in the plasma is determined by an LC-MS/MS method. Under the assumption that the test compound is completely absorbed, the theoretically maximum achievable bioavailability Fmax,calc is calculated by the equation Fmax,calc=[1−CLblood/Qh]*100, wherein CLblood is the total blood clearance and Qh is the hepatic blood flow in rat of 4.2 L per h per kg.

[3] = biological target: recombinant kinase domain of the human c-Met (amino acids 960-1390) (Homo sapiens (Human), UniProt P08581); experiment: c-Met receptor tyrosine kinase homogeneous time-resolved fluorescence assay (alternative format); type: biochemical; conditions: HTRF format; ATP 10 μM
recombinant kinase domain of the human c-Met (amino acids 960-1390), sequence (P08581 960-1390): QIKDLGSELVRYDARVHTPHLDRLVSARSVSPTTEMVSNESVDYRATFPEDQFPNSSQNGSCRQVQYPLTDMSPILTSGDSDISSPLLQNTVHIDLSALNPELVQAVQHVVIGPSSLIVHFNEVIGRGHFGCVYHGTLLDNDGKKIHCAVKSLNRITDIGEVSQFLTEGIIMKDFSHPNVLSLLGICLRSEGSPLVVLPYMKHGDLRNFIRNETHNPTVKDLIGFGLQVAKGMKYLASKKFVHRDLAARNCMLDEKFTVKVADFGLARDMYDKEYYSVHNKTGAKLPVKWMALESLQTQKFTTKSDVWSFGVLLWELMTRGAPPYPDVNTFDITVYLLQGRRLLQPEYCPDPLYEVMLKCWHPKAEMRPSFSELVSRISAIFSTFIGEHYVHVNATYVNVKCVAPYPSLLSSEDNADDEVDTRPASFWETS
Text: c-Met Receptor Tyrosine Kinase Homogeneous Time-Resolved Fluorescence Assay (Alternative Format):
The N-terminally His6-tagged recombinant kinase domain of the human c-Met (amino acids 960-1390), expressed in insect cells (SF21) and purified by Ni-NTA affinity chromatography and consecutive size exclusion chromatography (Superdex 200), is used. Alternatively, commercially available c-Met (Millipore) can be used. As substrate for the kinase reaction, the biotinylated poly-Glu, Tyr (4:1) copolymer (#61GTOBLC, Cis Biointernational, Marcoule, France) is used.
For the assay, […] of a 100-fold concentrated solution of the test compound in DMSO is pipetted into a black low-volume 384-well microtiter plate (Greiner Bio-One, Frickenhausen, Germany). 2 μL of a solution of c-Met in assay buffer [25 mM Hepes/NaOH, pH 7.5; 5 mM MgCl2; 5 mM MnCl2; 2 mM dithiothreitol; 0.1% (v/v) Tween 20 (Sigma); 0.1% (w/v) bovine serum albumin] are added, and the mixture is incubated for 15 min at 22° C. to allow pre-binding of the test compound to the enzyme before the start of the kinase reaction. Then, the kinase reaction is started by the addition of 3 μL of a solution of adenosine triphosphate (ATP, 16.7 μM; final concentration in the 5 μL assay volume is 10 μM) and substrate (2.27 μg/mL, final concentration in the 5 μL assay volume is 1.36 μg/mL ˜30 nM) in assay buffer, and the resulting mixture is incubated for a reaction time of 30 min at 22° C. The concentration of c-Met in the assay is adjusted depending on the activity of the enzyme lot and is appropriately chosen to have the assay in the linear range; typical enzyme concentrations are in the range of about 0.03 nM (final concentration in the 5 μL assay volume). The reaction is stopped by the addition of 5 μL of a solution of HTRF detection reagents [40 nM streptavidine-X Lent and 2.4 nM PT66-Eu-chelate, an europium-chelate labelled anti-phosphotyrosine antibody (Perkin-Elmer)] in an aqueous EDTA solution [100 mM EDTA, 0.2% (w/v) bovine serum albumin in 50 mM HEPES/NaOH, pH 7.5].
The resulting mixture is incubated for 1 h at 22° C. to allow the binding of the biotinylated phosphorylated peptide to the streptavidine-XLent and the PT66-Eu-chelate. Subsequently, the amount of phosphorylated substrate is evaluated by measurement of the resonance energy transfer from the PT66-Eu-chelate to the streptavidine-XLent. Therefore, the fluorescence emissions at 620 nm and 665 nm after excitation at 350 nm are measured in an HTRF reader, e.g. Rubystar (BMG Lab-technologies, Offenburg, Germany) or Viewlux (Perkin-Elmer). The ratio of the emissions at 665 nm and at […] is taken as the measure for the amount of phosphorylated substrate. The data are normalised (enzyme reaction without inhibitor=0% inhibition; all other assay components but no enzyme=100% inhibition).

Recombinant human c-Met protein, sequence (P08581 25-1390): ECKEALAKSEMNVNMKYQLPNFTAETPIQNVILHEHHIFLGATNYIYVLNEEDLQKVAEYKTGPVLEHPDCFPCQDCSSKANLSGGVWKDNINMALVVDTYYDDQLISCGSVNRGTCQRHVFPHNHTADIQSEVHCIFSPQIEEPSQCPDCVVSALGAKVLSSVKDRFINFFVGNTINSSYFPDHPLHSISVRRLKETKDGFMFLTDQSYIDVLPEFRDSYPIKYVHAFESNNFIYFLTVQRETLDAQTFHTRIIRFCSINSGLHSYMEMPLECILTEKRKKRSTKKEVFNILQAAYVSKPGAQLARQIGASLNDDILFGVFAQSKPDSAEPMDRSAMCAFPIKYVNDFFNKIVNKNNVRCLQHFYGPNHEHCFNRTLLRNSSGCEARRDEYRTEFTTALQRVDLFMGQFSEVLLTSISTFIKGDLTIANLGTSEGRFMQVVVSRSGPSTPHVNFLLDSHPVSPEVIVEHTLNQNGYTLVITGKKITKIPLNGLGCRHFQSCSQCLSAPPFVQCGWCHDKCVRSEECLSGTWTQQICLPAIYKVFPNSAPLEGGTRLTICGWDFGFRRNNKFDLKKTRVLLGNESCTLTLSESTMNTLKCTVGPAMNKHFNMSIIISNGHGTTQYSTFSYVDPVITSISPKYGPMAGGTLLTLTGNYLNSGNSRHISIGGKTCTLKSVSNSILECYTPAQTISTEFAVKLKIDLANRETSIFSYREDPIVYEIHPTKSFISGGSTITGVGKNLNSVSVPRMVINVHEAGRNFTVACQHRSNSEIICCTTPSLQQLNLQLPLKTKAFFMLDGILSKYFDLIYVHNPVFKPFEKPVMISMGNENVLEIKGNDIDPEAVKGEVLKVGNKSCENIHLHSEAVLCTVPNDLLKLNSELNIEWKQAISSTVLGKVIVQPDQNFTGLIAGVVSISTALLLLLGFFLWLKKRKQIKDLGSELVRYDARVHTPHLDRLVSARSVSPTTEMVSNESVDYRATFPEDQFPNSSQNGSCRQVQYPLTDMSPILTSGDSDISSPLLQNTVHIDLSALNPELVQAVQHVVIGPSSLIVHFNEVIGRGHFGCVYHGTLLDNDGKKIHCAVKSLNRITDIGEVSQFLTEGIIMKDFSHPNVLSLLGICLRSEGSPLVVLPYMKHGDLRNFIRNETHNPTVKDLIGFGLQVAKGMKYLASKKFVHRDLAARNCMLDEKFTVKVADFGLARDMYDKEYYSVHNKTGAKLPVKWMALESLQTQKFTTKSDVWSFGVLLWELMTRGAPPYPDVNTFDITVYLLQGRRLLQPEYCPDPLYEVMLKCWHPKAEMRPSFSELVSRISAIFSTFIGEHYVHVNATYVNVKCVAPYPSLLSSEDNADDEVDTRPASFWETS

IC50 [1]	in vivo PK, rat i.v. CLblood [2]	in vivo PK, rat i.v. Fmax, calc [2]	IC50 [3]	SMILES
6 nM	3.14 L/h/kg	25%	2 nM	CC1=C(C#N)C(c2ccc3[nH]nc(C)c3c2)C(C#N)=C(C(F)F)N1 (single isomer, unassigned) [Example 3, 2-(Difluoromethyl)-6-methyl-4-(3-methyl-1H-indazol-5-yl)-1,4-dihydropyridine-3,5-dicarbonitrile]
12 nM	1.68 L/h/kg	60%	1 nM	CC1=C(C#N)C(c2ccc3[nH]nc(C)c3c2)C(C#N)=C(C(F)(F)F)N1 (single isomer, unassigned) [Example 6]
26 nM	0.28 L/h/kg	93%	3 nM	Cc1n[nH]c2cc(F)c(C3C(C#N)=C(C(F)F)NC(C(F)F)=C3C#N)cc12 [Example 14, 2,6-Bis(difluoromethyl)-4-(6-fluoro-3-methyl-1H-indazol-5-yl)-1,4-dihydropyridine-3,5-dicarbonitrile]
